# pIC50: −log10 of the molar value.
# Molecular target: PIKFYVE (Homo sapiens, UniProt Q9Y2I7)
# Assay: KINOMEscan Kinase Assay (PIKFYVE inhibitory activity)
# Conditions: not given
# Sequence of PIKFYVE (Q9Y2I7 whole entry): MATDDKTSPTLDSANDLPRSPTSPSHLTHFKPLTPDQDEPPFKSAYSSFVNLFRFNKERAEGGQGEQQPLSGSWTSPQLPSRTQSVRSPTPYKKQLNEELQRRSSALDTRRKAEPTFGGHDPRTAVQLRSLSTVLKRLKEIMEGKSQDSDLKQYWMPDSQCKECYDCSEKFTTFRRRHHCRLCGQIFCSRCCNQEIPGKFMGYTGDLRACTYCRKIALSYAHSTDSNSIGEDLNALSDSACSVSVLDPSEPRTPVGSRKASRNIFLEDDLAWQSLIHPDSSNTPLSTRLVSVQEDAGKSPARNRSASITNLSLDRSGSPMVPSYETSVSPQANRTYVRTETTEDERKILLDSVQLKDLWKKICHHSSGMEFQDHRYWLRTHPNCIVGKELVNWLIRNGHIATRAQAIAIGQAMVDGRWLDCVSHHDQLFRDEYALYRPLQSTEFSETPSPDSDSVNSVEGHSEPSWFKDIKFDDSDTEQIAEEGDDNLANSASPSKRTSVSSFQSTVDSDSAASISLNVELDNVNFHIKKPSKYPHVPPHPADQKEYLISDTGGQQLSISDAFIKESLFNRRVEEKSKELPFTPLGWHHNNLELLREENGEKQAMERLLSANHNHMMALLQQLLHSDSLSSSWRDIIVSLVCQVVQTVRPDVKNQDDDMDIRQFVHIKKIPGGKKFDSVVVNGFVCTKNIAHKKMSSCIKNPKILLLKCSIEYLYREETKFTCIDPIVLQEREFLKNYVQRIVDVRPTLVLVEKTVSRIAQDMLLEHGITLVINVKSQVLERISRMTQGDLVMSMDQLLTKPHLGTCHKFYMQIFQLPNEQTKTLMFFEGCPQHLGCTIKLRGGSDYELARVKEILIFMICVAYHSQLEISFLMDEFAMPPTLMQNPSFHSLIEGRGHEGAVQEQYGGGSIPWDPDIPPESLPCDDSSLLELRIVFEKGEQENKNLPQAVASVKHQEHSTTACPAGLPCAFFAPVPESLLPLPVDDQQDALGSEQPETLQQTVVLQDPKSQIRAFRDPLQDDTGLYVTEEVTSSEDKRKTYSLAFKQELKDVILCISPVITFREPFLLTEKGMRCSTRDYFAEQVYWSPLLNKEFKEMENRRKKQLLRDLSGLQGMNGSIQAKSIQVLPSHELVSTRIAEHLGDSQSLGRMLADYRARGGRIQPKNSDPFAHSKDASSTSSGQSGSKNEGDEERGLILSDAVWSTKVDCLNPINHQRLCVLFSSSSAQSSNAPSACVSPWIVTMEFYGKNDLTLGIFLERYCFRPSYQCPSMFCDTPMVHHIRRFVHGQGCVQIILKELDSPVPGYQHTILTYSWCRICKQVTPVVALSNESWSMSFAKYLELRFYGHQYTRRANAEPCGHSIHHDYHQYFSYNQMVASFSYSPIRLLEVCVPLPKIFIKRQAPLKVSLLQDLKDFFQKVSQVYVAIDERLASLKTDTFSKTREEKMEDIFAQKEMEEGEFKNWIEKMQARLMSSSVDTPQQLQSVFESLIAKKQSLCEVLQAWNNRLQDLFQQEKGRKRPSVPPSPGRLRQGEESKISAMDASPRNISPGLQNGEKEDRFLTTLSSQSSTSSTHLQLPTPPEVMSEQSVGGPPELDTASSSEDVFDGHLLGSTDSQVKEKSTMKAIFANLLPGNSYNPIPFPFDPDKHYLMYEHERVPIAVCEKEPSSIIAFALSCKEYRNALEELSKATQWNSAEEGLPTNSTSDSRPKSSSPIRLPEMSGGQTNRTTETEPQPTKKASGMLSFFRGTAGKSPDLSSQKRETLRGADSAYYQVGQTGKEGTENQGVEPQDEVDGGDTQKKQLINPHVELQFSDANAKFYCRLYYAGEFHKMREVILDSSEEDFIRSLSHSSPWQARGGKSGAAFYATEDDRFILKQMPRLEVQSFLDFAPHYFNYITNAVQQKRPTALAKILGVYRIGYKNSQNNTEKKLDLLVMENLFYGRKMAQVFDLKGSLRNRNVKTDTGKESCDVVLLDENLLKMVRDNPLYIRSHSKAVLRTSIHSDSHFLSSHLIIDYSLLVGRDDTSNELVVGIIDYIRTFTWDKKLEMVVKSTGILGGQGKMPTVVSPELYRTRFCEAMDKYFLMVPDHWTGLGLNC
row,Compound,pIC50
1,"Cc1cccc(-c2ccn(-c3nc(N4CCOCC4)c4nc(CN5CCN(C(C)C)CC5)[nH]c4n3)n2)c1 [Ex. 40, 4-(8-((4-isopropylpiperazin-1-yl)methyl)-2-(3-(m-tolyl)-1H-pyrazol-1-yl)-9H-purin-6-yl)morpholine]",8.00 to 9.00

# Same assay, conditions: read-out: PIKfyve Activity (% inhibition)
Compound,inhibition at 0.001 µM [%],inhibition at 0.003 µM [%],inhibition at 0.005 µM [%]
"Cc1cccc(-c2ccn(-c3cc(N4CCOCC4)c4sc(CN5CCOCC5)c(C)c4n3)n2)c1 [Ex. 167, 4-(3-Methyl-2-(morpholinomethyl)-5-(3-(m-tolyl)-1H-pyrazol-1-yl)thieno[3,2-b]pyridin-7-yl)morpholine]",7,–,–
Cc1cccc(-c2ccn(-c3nc4[nH]c(C(=O)NC5COC5)nc4c(N4CCOCC4)c3F)n2)c1 [Ex. 310],–,0,–
Cc1cccc(-c2ccn(-c3nc4[nH]c(C(=O)N5CCC(N6CCC6)C(F)C5)nc4c(N4CCOCC4)c3F)n2)c1 (stereo not drawn) [Ex. 312],–,10,–
Cc1cccc(-c2nc(-c3nc(N4CCOCC4)c4sc(CN5CCN(S(C)(=O)=O)CC5)cc4n3)co2)c1 [Ex. 241],–,0,–
"Brc1ccn(-c2cc(N3CCOCC3)c3sc(CN4CCOCC4)cc3n2)n1 [Ex. 173, 4-(5-(3-Bromo-1H-pyrazol-1-yl)-2-(morpholinomethyl)thieno[3,2-b]pyridin-7-yl)morpholine]",18,–,–
Cc1cccc(-c2ccn(-c3nc4[nH]c(C(=O)N5CCN(S(C)(=O)=O)CC5)nc4c(N4CCOCC4)c3F)n2)c1 [Ex. 292],13,–,–
Cc1cccc(-c2ccn(-c3nc(N4CCOCC4)c4nc(CO)[nH]c4n3)n2)c1 [Ex. 314],40,–,–
"Cc1cccc(-c2ccn(-c3cc(N4CCOCC4)c4sc(CN5CCN(S(C)(=O)=O)CC5)c(C)c4n3)n2)c1 [Ex. 169, 4-(3-Methyl-2-((4-(methylsulfonyl)piperazin-1-yl)methyl)-5-(3-(m-tolyl)-1H-pyrazol-1-yl)thieno[3,2-b]pyridin-7-yl)morpholine]",–,47,–
Cc1cccc(-c2ccn(-c3nc(N4CCOCC4)c4nc(C(=O)NC5COC5)[nH]c4n3)n2)c1 [Ex. 275],40,–,–
Cc1cccc(-c2ccn(-c3cc(N4CCOCC4)c4nc(CN5CCN(S(=O)(=O)C6CC6)CC5)[nH]c4n3)n2)c1 [Ex. 280],46,–,–
Cc1cccc(-c2ccn(-c3nc4[nH]c(C(=O)NC5CC5)nc4c(N4CCOCC4)c3F)n2)c1 [Ex. 307],–,0,–
"CC(=O)c1cccc(-c2ccn(-c3cc(N4CCOCC4)c4sc(CN5CCOCC5)cc4n3)n2)c1 [Ex. 184, 1-(3-(1-(7-Morpholino-2-(morpholinomethyl)thieno[3,2-b]pyridin-5-yl)-1H-pyrazol-3-yl)phenyl) ethan-1-one]",–,–,10
Cc1cccc(-c2nc(-c3cc(N4CCOCC4)c4sc(CN5CCN(S(C)(=O)=O)CC5)cc4n3)co2)c1 [Ex. 242],–,8,–
Cc1cccc(-c2ccn(-c3nc(N4CCOCC4)c4nc(CN5CCN(S(C)(=N)=O)CC5)[nH]c4n3)n2)c1 (stereo not drawn) [Ex. 282],41,–,–

# Same assay, conditions: read-out: PIKfyve Activity (PIKfyve % inhibition)
row,Compound,inhibition at 0.001 µM [%]
1,Cc1cccc(-c2ccn(-c3cc(N4CCOCC4)c4sc(C(N)=O)cc4n3)n2)c1 [Ex. 293],52 to 100
2,Cc1cccc(-c2ccn(-c3cc(N4CCOCC4)c4sc(C(=O)NC5(C)COC5)cc4n3)n2)c1 [Ex. 252],52 to 100
3,"Cc1cccc(-c2ccn(-c3nc(N4CCOCC4)c4sc(NCCS(C)(=O)=O)nc4n3)n2)c1 [Ex. 209, N-(2-(Methylsulfonyl)ethyl)-7-morpholino-5-(3-(m-tolyl)-1H-pyrazol-1-yl)thiazolo[4,5-d]pyrimidin-2-amine]",52 to 100
4,Cc1cccc(-c2ccn(-c3cc(N4CCOCC4)c4nc(CN5CCN(S(=O)(=O)C(C)C)CC5)[nH]c4n3)n2)c1 [Ex. 279],52 to 100
5,Cc1cccc(-c2ccn(-c3cc(N4CCOCC4)c4sc(CO)cc4n3)n2)c1 [Ex. 313],52 to 100
6,"Cc1cccc(-c2ccn(-c3cc(N4CCOCC4)c4sc(C(=O)NC5CC5)cc4n3)n2)c1 [Ex. 183, N-cyclopropyl-7-morpholino-5-(3-(m-tolyl)-1H-pyrazol-1-yl)thieno[3,2-b]pyridine-2-carboxamide]",52 to 100
7,Cc1cccc(-c2ccn(-c3nc(N4CCOCC4)c4nc(C(=O)N5CCN(C(C)C)CC5)[nH]c4n3)n2)c1 [Ex. 86],52 to 100
8,Cc1cccc(-c2ccn(-c3cc(N4CCOCC4)c4nc(C(=O)NC5CC5)[nH]c4n3)n2)c1 [Ex. 305],52 to 100
9,CC(=O)NC1CCN(Cc2nc3c(N4CCOCC4)cc(-n4ccc(-c5cccc(C)c5)n4)nc3[nH]2)CC1 [Ex. 302],52 to 100
10,CC(=O)NC1CCN(Cc2cc3nc(-n4ccc(-c5cccc(C)c5)n4)cc(N4CCOCC4)c3s2)CC1 [Ex. 296],52 to 100
11,Cc1cccc(-c2ccn(-c3cc(N4CCOCC4)c4nc(C(=O)NC5COC5)[nH]c4n3)n2)c1 [Ex. 298],52 to 100
12,Cc1cccc(-c2ccn(-c3cc(N4CCOCC4)c4sc(C(=O)N5CCN(S(C)(=O)=O)CC5)c(C)c4n3)n2)c1 [Ex. 291],52 to 100
13,"Cc1cccc(-c2ccn(-c3nc(N4CCOCC4)c4nc(C(=O)N5CCC(N6CCC6)C(F)C5)[nH]c4n3)n2)c1 (stereo not drawn) [Ex. 85, (4-(Azetidin-1-yl)-3-fluoropiperidin-1-yl) (6-morpholino-2-(3-(m-tolyl)-1H-pyrazol-1-yl)-9H-purin-8-yl)methanone]",52 to 100
14,Cc1cccc(-c2ccn(-c3cc(N4CCOCC4)c4nc(C(=O)NC5CC5)n(C)c4n3)n2)c1 [Ex. 309],52 to 100
15,Cc1cccc(-c2ccn(-c3cc(N4CCOCC4)c4nc(CN5CC6CC5CN6S(C)(=O)=O)[nH]c4n3)n2)c1 (stereo not drawn) [Ex. 281],52 to 100
16,Cc1cccc(-c2ccn(-c3cc(N4CCOCC4)c4sc(C(=O)N5CC(F)C(N6CCC6)C5)cc4n3)n2)c1 (stereo not drawn) [Ex. 239],52 to 100
17,Cc1cccc(-c2ccn(-c3cc(N4CCOCC4)c4sc(C(=O)N5CCN(S(C)(=O)=O)CC5)cc4n3)n2)c1 [Ex. 240],52 to 100
18,Cc1cccc(-c2ccn(-c3cc(N4CCOCC4)c4sc(NC(=O)C5CCN(C)CC5)cc4n3)n2)c1 [Ex. 235],52 to 100
19,Cc1cccc(-c2ccn(-c3cc(N4CCOCC4)c4sc(NC(=O)C5CNC5)cc4n3)n2)c1 [Ex. 278],52 to 100
20,"Cc1cccc(-c2ccn(-c3nc(N4CCOCC4)c4sc(N(C)C5CCN(C)CC5)nc4n3)n2)c1 [Ex. 208, N-Methyl-N-(1-methylpiperidin-4-yl)-7-morpholino-5-(3-(m-tolyl)-1H-pyrazol-1-yl)thiazolo[4,5-d]pyrimidin-2-amine]",52 to 100
21,CC(=O)N1CCN(Cc2nc3c(N4CCOCC4)cc(-n4ccc(-c5cccc(C)c5)n4)nc3[nH]2)CC1 [Ex. 301],52 to 100
22,"Cc1cccc(-c2ccn(-c3cc(N4CCOCC4)c4sc(C(=O)NC5CCCN(C)C5)cc4n3)n2)c1 (stereo not drawn) [Ex. 187, N-(1-Methylpiperidin-3-yl)-7-morpholino-5-(3-(m-tolyl)-1H-pyrazol-1-yl)thieno[3,2-b]pyridine-2-carboxamide]",52 to 100
23,Cc1cccc(-c2ccn(-c3cc(N4CCOCC4)c4sc(C(=O)NCCN(C)C)cc4n3)n2)c1 [Ex. 255],52 to 100
24,Cc1cccc(-c2ccn(-c3cc(N4CCOCC4)c4nc(C(=O)N5CCC(N6CCC6)C(F)C5)[nH]c4n3)n2)c1 (stereo not drawn) [Ex. 89],52 to 100

# Reference: US20260297108A1, “NOVEL INHIBITORS OF PIKFYVE AND METHODS USING SAME” (priority 2023, published 2026)
